Test results reported in patent US20090270442A1, “POLYMORPHS OF HYDROCHLORIDE SALT OF 5-(3-(ETHYLSULFONYL)PHENYL)-3,8-DIMETHYL-N-(1-METHYLPIPERIDIN-4-YL)-9H-PYRIDO[2,3-B]INDOLE-7-CARBOXAMIDE AND METHODS OF USE THEREFOR” (TAKEDA PHARMACEUTICAL COMPANY LIMITED, priority 2008, published 2009).

Experiment: DI water slurry during the concurrent process control screen
Format: physicochemical
Settings: several hours (2-24 hours)

## CCS(=O)(=O)c1cccc(-c2cc(C(=O)NC3CCN(C)CC3)c(C)c3[nH]c4ncc(C)cc4c23)c1 [Form B]
  form isolated after slurry in DI water: Form A was isolated
